Reference: paper PMC7897990, “TriTOX: A novel Trichomonas vaginalis assay platform for high-throughput screening of compound libraries” (International Journal for Parasitology: Drugs and Drug …, 2021)
Where two headings read alike, the source gives them in different places. Positions of bridges follow the written chain, without caps; N, C: chain ends. Non-standard residues stand in square brackets, D forms with d. Residues, ends and D or L forms follow the SMILES beside them. *: point of attachment. Ileψ(thiazoline)Cys = CC[C@H](C)[C@H](N)C1=N[C@H](C(=O)*)CS1; dOrn = NCCC[C@@H](N)C(=O)O

Key:
[1] = system: Trichomonas vaginalis G3 trophozoites
[2] = system: nontumorigenic neonatal foreskin fibroblast (NFF) cell line
[3] = replicate 1, parasite screen at 1 µg/mL
[4] = replicate 2, parasite screen at 1 µg/mL
[5] = HTS single concentration, parasite screen 1 µg/mL, replicate 1
[6] = HTS single concentration, parasite screen 1 µg/mL, replicate 2
[7] = NFF_NS1 screen 5 µg/mL, single concentration
[8] = HTS replicate 1, parasite screen 1 µg/mL
[9] = HTS replicate 2, parasite screen 1 µg/mL
[10] = NFF fibroblasts, single concentration 5 µg/mL
[11] = HTS, parasite screen at 1 µg/mL, replicate 1
[12] = HTS, parasite screen at 1 µg/mL, replicate 2
[13] = NFF fibroblast screen at 5 µg/mL, A = active, I = inactive
[14] = parasite screen at 1 µg/mL, replicate 1
[15] = parasite screen at 1 µg/mL, replicate 2
[16] = NFF_NS1 screen at 5 µg/mL, NFF cells

COc1ccc2c(c1OC)C(=O)O[C@@H]2[C@H]1c2cc3c(cc2CCN1C)OCO3 [BIA-H1954]
T.vaginalis_%inb_Rep1 [1, 3]: 11.27% | T.vaginalis_%inb_Rep2 [1, 4]: 6.40% | NFF_Activity ([2]; NFF cells, screen at 5 µg/mL): I (otherwise these were reported as inactive (I))

Cc1cc(O)cc(=O)o1 [BIA-H1736]
T.vaginalis_%inb_Rep1 [1, 3]: 11.05% | T.vaginalis_%inb_Rep2 [1, 4]: 13.86% | NFF_Activity ([2]; NFF cells, screen at 5 µg/mL): I (otherwise these were reported as inactive (I))

CCCC[C@H]1C(=O)O[C@H](C)[C@H](NC(=O)c2cccc(NC=O)c2O)C(=O)O[C@@H](C)[C@@H]1OC(=O)CC(C)C [BIA-A1444]
T.vaginalis_%inb_Rep1 [1, 5]: 12.87% | T.vaginalis_%inb_Rep2 [1, 6]: 14.61% | NFF_Activity [2, 7]: I (otherwise these were reported as inactive (I))

COC1=CC(C)=CC(C)C(O)C(C)CC(C)=CC=CC(OC)C(C(C)C(O)C(C)C2(O)CC(O)C(C)C(C(C)C)O2)OC1=O (centres unmarked) [BIA-B1012]
T.vaginalis_%inb_Rep1 [1, 5]: 15.99% | T.vaginalis_%inb_Rep2 [1, 6]: 16.70% | NFF_Activity [2, 7]: I (otherwise these were reported as inactive (I))

Cc1cc(O)c(C)c(O)c1C(=O)O [BIA-M1661]
T.vaginalis_%inb_Rep1 [1, 3]: 12.78% | T.vaginalis_%inb_Rep2 [1, 4]: 12.06% | NFF_Activity ([2]; NFF cells, screen at 5 µg/mL): A (active (A) compounds having >25% inhibitory activity)

CC1=C[C@H]2C(=O)O[C@H]3C[C@@H](C/C=C(\C)C[C@@H](C)/C=C/C=C4\CO[C@H]([C@@H]1O)[C@@]42O)O[C@]1(C3)C[C@H](O)[C@H](C)[C@@H](/C(C)=C/C(C)C)O1 [Nemadectin]
T.vaginalis_%inb_Rep1 [1, 8]: 11.56% | T.vaginalis_%inb_Rep2 [1, 9]: 13.53% | NFF_Activity [2, 10]: I (otherwise these were reported as inactive (I))

COC(=O)c1cccc2oc(-c3cccc4oc(-c5ccccc5O)nc34)nc12 [UK-1]
T.vaginalis_%inb_Rep1 [1, 11]: 10.64% | T.vaginalis_%inb_Rep2 [1, 12]: 15.36% | NFF_Activity [2, 13]: I (otherwise these were reported as inactive (I))

C/C=C/[C@@H]1C=C[C@@H]2C[C@H](C)CC[C@H]2[C@]1(C)/C(O)=C1/C(=O)[C@@H](CO)N(C)C1=O [Epiequisetin]
T.vaginalis_%inb_Rep1 [1, 11]: 11.85% | T.vaginalis_Absorbance_Rep1 ([1]; HTS, parasite screen at 1 µg/mL, replicate 1, raw absorbance): 0.929 | T.vaginalis_%inb_Rep2 [1, 12]: 4.34% | T.vaginalis_Absorbance_Rep2 ([1]; HTS, parasite screen at 1 µg/mL, replicate 2, raw absorbance): 0.68 | NFF_Activity ([2]; NFF_NS1 screen at 5 µg/mL): I (otherwise these were reported as inactive (I))

CC[C@@H](C)/C=C(C)/C=C/C(=O)c1c(O)c(-c2ccc(O)cc2)cn(O)c1=O [BIA-T1566]
T.vaginalis_%inb_Rep1 [1, 14]: 8.55% | T.vaginalis_%inb_Rep2 [1, 15]: 14.93% | NFF_Activity [2, 16]: I (otherwise these were reported as inactive (I))

CC[C@H]1OC(=O)[C@H](C)[C@@H](O[C@H]2C[C@@](C)(OC)[C@@H](O)[C@H](C)O2)[C@H](C)[C@@H](O[C@@H]2O[C@H](C)C[C@H](N(C)C)[C@H]2O)[C@](C)(O)C[C@@H](C)/C(=N\OCOCCOC)[C@H](C)[C@@H](O)[C@]1(C)O [BIA-R1315]
T.vaginalis_%inb_Rep1 [1, 14]: 1.36% | T.vaginalis_%inb_Rep2 [1, 15]: 5.85% | NFF_Activity [2, 16]: I (otherwise these were reported as inactive (I))

COc1oc([C@H]2C/C(=C/C(C)=C/c3ccc([N+](=O)[O-])cc3)CO2)c(C)c(=O)c1C [BIA-A1009]
T.vaginalis_%inb_Rep1 [1, 5]: 12.82% | T.vaginalis_%inb_Rep2 [1, 6]: 5.78% | NFF_Activity [2, 7]: I (otherwise these were reported as inactive (I))

CN[C@@H]1C[C@H]2O[C@@](C)([C@@H]1OC)n1c3ccccc3c3c4c(c5c6ccccc6n2c5c31)C(=O)NC4 [BIA-S1086]
T.vaginalis_%inb_Rep1 [1, 14]: 72.52% | T.vaginalis_%inb_Rep2 [1, 15]: 83.24% | NFF_Activity [2, 16]: A (active (A) compounds having >25% inhibitory activity)

C=CC(C)(C)C12CC3C(=O)N4C(CC5(C(C)(C)C=C)c6ccccc6NC45)C(=O)N3C1Nc1ccccc12 (centres unmarked) [BIA-A1631]
T.vaginalis_%inb_Rep1 [1, 5]: 14.16% | T.vaginalis_%inb_Rep2 [1, 6]: 13.96% | NFF_Activity [2, 7]: I (otherwise these were reported as inactive (I))

CN1C(=O)c2ccccc2-n2c(nc3ccccc3c2=O)C1Cc1ccccc1 (centres unmarked) [BIA-B1647]
T.vaginalis_%inb_Rep1 [1, 5]: 16.42% | T.vaginalis_%inb_Rep2 [1, 6]: 13.38% | NFF_Activity [2, 7]: I (otherwise these were reported as inactive (I))

CC[C@H](C)[C@H](N)C1=N[C@H](C(=O)N[C@@H](CC(C)C)C(=O)N[C@H](CCC(=O)O)C(=O)N[C@H](C(=O)N[C@H]2CCCCNC(=O)[C@H](CC(N)=O)NC(=O)[C@@H](CC(=O)O)NC(=O)[C@H](Cc3cnc[nH]3)NC(=O)[C@@H](Cc3ccccc3)NC(=O)[C@H]([C@@H](C)CC)NC(=O)[C@@H](CCCN)NC2=O)[C@@H](C)CC)CS1 [BIA-B1784] ({Ileψ(thiazoline)Cys}-L[dE]IK[dOrn]I[dF]H[dD]N; lactam 4-C)
T.vaginalis_%inb_Rep1 [1, 5]: 15.89% | T.vaginalis_%inb_Rep2 [1, 6]: 9.69% | NFF_Activity [2, 7]: I (otherwise these were reported as inactive (I))

CC(=O)OCC1=C[C@@H]2OC(=O)C3=CO[C@@H](O[C@@H]4O[C@H](CO)[C@@H](O)[C@H](O)[C@H]4O)[C@H]1[C@@H]32 [BIA-A1774]
T.vaginalis_%inb_Rep1 [1, 5]: 16.59% | T.vaginalis_%inb_Rep2 [1, 6]: 15.84% | NFF_Activity [2, 7]: I (otherwise these were reported as inactive (I))

CCC(C=CC1OC(=O)C=CC1C)=CC(C)CC=CC(C)=CC(C)C(=O)C(C)C(O)C(C)CC(C)=CC(=O)O (centres unmarked) [BIA-L1046]
T.vaginalis_%inb_Rep1 [1, 3]: 99.95% | T.vaginalis_%inb_Rep2 [1, 4]: 96.86% | NFF_Activity ([2]; NFF cells, screen at 5 µg/mL): A (active (A) compounds having >25% inhibitory activity)

C[C@@H]1CCC[C@@H](O)CCC/C=C/c2cc(O)cc(O)c2C(=O)O1 [Zearalenol, alpha-]
T.vaginalis_%inb_Rep1 [1, 11]: 11.90% | T.vaginalis_%inb_Rep2 [1, 12]: 12.68% | NFF_Activity [2, 13]: I (otherwise these were reported as inactive (I))

COc1ccc2c(c1OC)C(=O)O[C@@H]2[C@H]1c2c(cc3c(c2OC)OCO3)CCN1C [Narcotine]
T.vaginalis_%inb_Rep1 [1, 8]: 11.80% | T.vaginalis_%inb_Rep2 [1, 9]: 11.76% | NFF_Activity [2, 10]: I (otherwise these were reported as inactive (I))

CN(N=O)C(=O)N[C@@H]1[C@@H](O)[C@H](O)[C@@H](CO)O[C@@H]1O [BIA-S1186]
T.vaginalis_%inb_Rep1 [1, 14]: 9.02% | T.vaginalis_%inb_Rep2 [1, 15]: 7.62% | NFF_Activity [2, 16]: I (otherwise these were reported as inactive (I))

C/C=C/c1cc2c(c(=O)o1)[C@H](O)[C@@H](O)[C@H](C)O2 [BIA-R1896]
T.vaginalis_%inb_Rep1 [1, 14]: 13.39% | T.vaginalis_%inb_Rep2 [1, 15]: 5.58% | NFF_Activity [2, 16]: I (otherwise these were reported as inactive (I))

CC[C@H](C)C(=O)O[C@H]1C[C@@H](C)C=C2C=C[C@H](C)[C@H](CC[C@@H]3C[C@@H](O)CC(=O)O3)[C@H]21 [BIA-L1264]
T.vaginalis_%inb_Rep1 [1, 3]: 13.08% | T.vaginalis_%inb_Rep2 [1, 4]: 12.64% | NFF_Activity ([2]; NFF cells, screen at 5 µg/mL): A (active (A) compounds having >25% inhibitory activity)

O=c1cc(O)c1=O [Moniliformin]
T.vaginalis_%inb_Rep1 [1, 8]: 8.57% | T.vaginalis_%inb_Rep2 [1, 9]: 12.25% | NFF_Activity [2, 10]: I (otherwise these were reported as inactive (I))

CC(C=CC1OC(=O)C=CC1C)=CC(C)CC=CC(C)=CC(C)C(=O)C(C)C(O)C(C)CC(C)=CC(=O)O (centres unmarked) [BIA-L1045]
T.vaginalis_%inb_Rep1 [1, 3]: 3.96% | T.vaginalis_%inb_Rep2 [1, 4]: 1.86% | NFF_Activity ([2]; NFF cells, screen at 5 µg/mL): A (active (A) compounds having >25% inhibitory activity)

CC[C@H]1OC(=O)[C@H](C)[C@@H](O[C@H]2C[C@@](C)(OC)[C@@H](O)[C@H](C)O2)[C@H](C)[C@@H](O[C@@H]2O[C@H](C)C[C@H](N(C)C)[C@H]2O)[C@](C)(O)C[C@@H](C)CN(C)[C@H](C)[C@@H](O)[C@]1(C)O [BIA-A1312]
T.vaginalis_%inb_Rep1 [1, 5]: 6.35% | T.vaginalis_%inb_Rep2 [1, 6]: 11.21% | NFF_Activity [2, 7]: I (otherwise these were reported as inactive (I))

CC1(C)OC2CC(=O)OCC23C1CC(=O)C1(C)C3CCC2(C)C(c3ccoc3)OC(=O)C3OC321 (centres unmarked) [BIA-L1755]
T.vaginalis_%inb_Rep1 [1, 3]: 11.46% | T.vaginalis_%inb_Rep2 [1, 4]: 13.09% | NFF_Activity ([2]; NFF cells, screen at 5 µg/mL): I (otherwise these were reported as inactive (I))

CO[C@H]1C[C@@H]2CC[C@@H](C)[C@@](O)(O2)C(=O)C(=O)N2CCCC[C@H]2C(=O)O[C@H]([C@H](C)C[C@@H]2CC[C@@H](O)[C@H](OC)C2)CC(=O)[C@H](C)/C=C(\C)[C@@H](O)[C@@H](OC)C(=O)[C@H](C)C[C@H](C)/C=C/C=C/C=C/1C [BIA-R1183]
T.vaginalis_%inb_Rep1 [1, 14]: 10.28% | T.vaginalis_%inb_Rep2 [1, 15]: 12.55% | NFF_Activity [2, 16]: I (otherwise these were reported as inactive (I))

C[C@H]1CCC/C=C/C(=O)c2c(O)cc(O)cc2CC(=O)O1 [BIA-D1399]
T.vaginalis_%inb_Rep1 [1, 5]: 13.95% | T.vaginalis_%inb_Rep2 [1, 6]: 13.67% | NFF_Activity [2, 7]: A (active (A) compounds having >25% inhibitory activity)

CC=CC=CC1OC(O)(C(C)C(O)C(C)C2OC(=O)C(OC)=CC(C)=CC(C)C(O)C(C)CC(C)=CC=CC2OC)CC(OC2CC(O)C(O)C(C)O2)C1C (centres unmarked) [PC-766B]
T.vaginalis_%inb_Rep1 [1, 8]: 72.87% | T.vaginalis_%inb_Rep2 [1, 9]: 76.65% | NFF_Activity [2, 10]: A (active (A) compounds having >25% inhibitory activity)

CS(=O)(=O)c1ccc([C@@H](O)[C@@H](CO)NC(=O)C(Cl)Cl)cc1 [BIA-T1486]
T.vaginalis_%inb_Rep1 [1, 14]: 8.02% | T.vaginalis_%inb_Rep2 [1, 15]: 12.00% | NFF_Activity [2, 16]: I (otherwise these were reported as inactive (I))

CC[C@H](C)[C@H]1O[C@]2(CC[C@@H]1C)C[C@@H]1C[C@@H](C/C=C(\C)[C@@H](O[C@H]3C[C@H](OC)[C@@H](O)[C@H](C)O3)[C@@H](C)/C=C/C=C3\CO[C@@H]4[C@H](O)C(C)=C[C@@H](C(=O)O1)[C@]34O)O2 [BIA-I1150]
T.vaginalis_%inb_Rep1 [1, 3]: 15.62% | T.vaginalis_%inb_Rep2 [1, 4]: 12.38% | NFF_Activity ([2]; NFF cells, screen at 5 µg/mL): I (otherwise these were reported as inactive (I))

CC[C@H](C)[C@H]1O[C@]2(C=C[C@@H]1C)C[C@@H]1C[C@@H](C/C=C(\C)[C@@H](O[C@H]3C[C@H](OC)[C@@H](O[C@H]4C[C@H](OC)[C@@H](O)[C@H](C)O4)[C@H](C)O3)[C@@H](C)/C=C/C=C3\CO[C@@H]4[C@H](O)C(C)=C[C@@H](C(=O)O1)[C@]34O)O2 [BIA-A1010]
T.vaginalis_%inb_Rep1 [1, 5]: 14.32% | T.vaginalis_%inb_Rep2 [1, 6]: 14.17% | NFF_Activity [2, 7]: I (otherwise these were reported as inactive (I))
